ChEMBL document CHEMBL3526084, “Cytochrome P450 dysregulations in thioacetamide-induced liver cirrhosis in rats and the counteracting effects of hepatoprotective agents” (Drug Metab Dispos, 2012)
The source made the active and inactive calls. The calls are words filed in the database; no cut-off is given here.

Assays:
Rattus norvegicus [1] = assay: Upregulation of CYP3A2 in Sprague-Dawley rat liver at 200 mg/kg administered intragastrically qd for 2 weeks by Western blotting analysis; assay type: ADME, organism-based; parameters: dose 200 mg/kg, route intragastric; settings: in vivo, po, 336 h
Rattus norvegicus [2] = assay: Hepatoprotective activity in thioacetamide-induced Sprague-Dawley rat liver cirrhosis model assessed as downregulation of CYP1A2 protein level at 200 mg/kg administered intragastrically qd for 2 weeks by Western blotting analysis relative to control; assay type: functional, organism-based; parameters: dose 200 mg/kg
Rattus norvegicus [3] = assay: Hepatoprotective activity in thioacetamide-induced Sprague-Dawley rat liver cirrhosis model assessed as downregulation of CYP3A2 protein level at 200 mg/kg administered intragastrically qd for 2 weeks by Western blotting analysis relative to control; assay type: functional; settings: route intragastric
Rattus norvegicus [4] = assay: Hepatoprotective activity in thioacetamide-induced Sprague-Dawley rat liver cirrhosis model assessed as reversal of thioacetamide-induced change in serum TBIL level at 200 mg/kg administered intragastrically qd for 2 weeks by […]; assay type: functional, organism-based; parameters: dose 200 mg/kg
Rattus norvegicus [5] = assay: Upregulation of CYP2E1 in Sprague-Dawley rat liver at 200 mg/kg administered intragastrically qd for 2 weeks by Western blotting analysis; assay type: ADME, organism-based; parameters: dose 200 mg/kg, route intragastric; settings: in vivo, po, 336 h
Rattus norvegicus [6] = assay: Upregulation of CYP2C6 in Sprague-Dawley rat liver at 200 mg/kg administered intragastrically qd for 2 weeks by Western blotting analysis; assay type: ADME, organism-based; parameters: dose 200 mg/kg, route intragastric; settings: in vivo, po, 336 h
Rattus norvegicus [7] = assay: Downregulation of CYP1A2 in Sprague-Dawley rat liver at 200 mg/kg administered intragastrically qd for 2 weeks by Western blotting analysis; assay type: ADME, organism-based; parameters: dose 200 mg/kg, route intragastric; settings: in vivo, po, 336 h
Liver microsome [8] = assay: Reversal of thioacetamide-induced CYP3A2 inactivation in rat liver microsomes at 0.2 to 5 mM in presence of NADPH; assay type: functional
Liver microsome [9] = assay: Reversal of thioacetamide-induced CYP2E1 inactivation in rat liver microsomes at 2 to 50 uM in presence of NADPH; assay type: functional
Rattus norvegicus [10] = assay: Hepatoprotective activity in thioacetamide-induced Sprague-Dawley rat liver cirrhosis model assessed as downregulation of CYP2E1 protein level at 200 mg/kg administered intragastrically qd for 2 weeks by Western blotting analysis relative to control; assay type: functional; settings: route intragastric
Liver microsome [11] = assay: Reversal of thioacetamide-induced CYP2E1 inactivation in rat liver microsomes at 0.2 to 5 mM in presence of NADPH; assay type: functional
Rattus norvegicus [12] = assay: Hepatoprotective activity in thioacetamide-induced Sprague-Dawley rat liver cirrhosis model assessed as reversal of thioacetamide-induced change in serum ALT level at 200 mg/kg administered intragastrically qd for 2 weeks by […]; assay type: functional, organism-based; parameters: dose 200 mg/kg
Liver microsome [13] = assay: Reversal of thioacetamide-induced CYP1A2 inactivation in rat liver microsomes at 2 to 50 uM in presence of NADPH; assay type: functional
Liver microsome [14] = assay: Reversal of thioacetamide-induced CYP1A2 inactivation in rat liver microsomes at 0.2 to 5 mM in presence of NADPH; assay type: functional
Rattus norvegicus [15] = assay: Hepatoprotective activity in thioacetamide-induced Sprague-Dawley rat liver cirrhosis model assessed as reversal of thioacetamide-induced change in serum AST level at 200 mg/kg administered intragastrically qd for 2 weeks by […]; assay type: functional, organism-based; parameters: dose 200 mg/kg
Liver microsome [16] = assay: Reversal of thioacetamide-induced CYP2C6 inactivation in rat liver microsomes at 2 to 50 uM in presence of NADPH; assay type: functional
Liver microsome [17] = assay: Reversal of thioacetamide-induced CYP3A2 inactivation in rat liver microsomes at 2 to 50 uM in presence of NADPH; assay type: functional
Rattus norvegicus [18] = assay: Hepatoprotective activity in thioacetamide-induced Sprague-Dawley rat liver cirrhosis model assessed as downregulation of CYP2C6 protein level at 200 mg/kg administered intragastrically qd for 2 weeks by Western blotting analysis relative to control; assay type: functional, organism-based; parameters: dose 200 mg/kg
Liver microsome [19] = assay: Reversal of thioacetamide-induced CYP2C6 inactivation in rat liver microsomes at 0.2 to 5 mM in presence of NADPH; assay type: functional

- Activity (Rattus norvegicus [1]): Active
- Activity (Rattus norvegicus [5]): Active
- Activity (Rattus norvegicus [6]): Active
- Activity (Rattus norvegicus [7]): Active
Structure (SMILES): COC(=O)c1cc(OC)c2c(c1-c1c(C(=O)OC)cc(OC)c3c1OCO3)OCO2 [BIFENDATE]
- Activity (Rattus norvegicus [2]): Active
- fold change (FC) (Rattus norvegicus [3]): 1.56
- Activity (Rattus norvegicus [4]): Active
- Activity (Liver microsome [8]): inactive
- Activity (Liver microsome [9]): inactive
- fold change (FC) (Rattus norvegicus [10]): 2.26
- Activity (Liver microsome [11]): inactive
- Activity (Rattus norvegicus [12]): Active
- Activity (Liver microsome [13]): inactive
- Activity (Liver microsome [14]): inactive
- Activity (Rattus norvegicus [15]): Active
- Activity (Liver microsome [16]): inactive
- Activity (Liver microsome [17]): inactive
- Activity (Rattus norvegicus [18]): Active
- Activity (Liver microsome [19]): inactive
